# Measured values: US12029751B2, “Therapeutic agent for nervous system disease” (OSAKA UNIVERSITY, priority 2017, dated 2024)
# Experiments:
# [1] = system: cerebral cortical neurons; test: TUNEL assay, apoptosis inhibiting effect on cerebral cortical neurons; type: cell-based, rat; conditions: after 18 hours
# Description: (§1) Cerebral cortical neurons were collected and cultured by a conventional method. Cerebral cortex was dissected from a fetus of a Sprague-Dawley (SD) rat (18th day of pregnancy) and recovered in ice-cooled Dulbecco's Modified Eagle Medium (DMEM) containing 10% fetal bovine serum (FBS) and 1% penicillin/streptomycin. The pia mater and blood vessels were removed, and the remaining cerebral cortex was transferred to DMEM (containing 1% penicillin/streptomycin and no FBS) and cut into small pieces having a size of 1 mm by surgical scissors. Papain (final concentration, 2 mg/ml) was added to the cell mixture, and the mixture was allowed to react at 37° C. for 30 minutes. DNase I (70 U/ml) was added to the reaction mixture and reaction was carried out for 30 seconds. Then, DMEM containing 10% FBS and 1% penicillin/streptomycin was added to terminate the reaction. The cell mixture was centrifuged at 800 rpm, the residue was re-suspended in DMEM containing 10% FBS and 1% penicillin/streptomycin, and the suspension was seeded on a dish coated with poly-L lysine (PLL). At 4 hours after the cell seeding, the medium was replaced with Neurobasal medium (containing 10% B27 supplement and 1% penicillin/streptomycin).
# To the cerebral cortical neurons (Example 1-1) cultured on a PLL-coated 8-well chamber slide, 20 mM glutamic acid and […] methylcobalamin (MeCbl) were added. After 18 hours, the proportion of apoptotic cells was evaluated using Promega's DeadEnd Fluorometric TUNEL System. Cells were fixed with 4% paraformaldehyde (PFA) at 4° C. for 25 minutes. After cells were permeabilized with 0.2% Triton X-100 for 5 minutes, an incubation buffer was added, and the mixture was left stand at 37° C. with light shielding for 60 minutes to label the permeabilized cells. The nuclei were labeled with 4′6-diamidino-2-phenylindole (DAPI). The total cell number and the number of TUNEL-positive cells were determined.
# Akt-mTOR pathway = test: Western blot of Akt, 4EBP1 and S6K phosphorylation (mechanism of macrophage induction); type: cell-based, mouse; conditions: 30 minutes
# Protocol: The J774A.1 cells (Example 5-1) were seeded on a dish having a diameter of 6 cm. After 4 days, proteins were collected using a cell lysis buffer containing a cocktail of protease inhibitors. The protein concentration was measured by BCA assay. Then, 50 μg of each sample was subjected to SDS-PAGE, and the electrophoresed proteins were transferred to a polyvinylidene difluoride membrane. The membrane was blocked with a blocking buffer for 1 hour, and then the proteins were allowed to react with primary antibodies at 4° C. overnight. The proteins were further allowed to react with a secondary antibody at room temperature for 1 hour and detected using ECL Western Blotting Detection System. To detect the M1 markers iNOS and IL-1β, lipopolysaccharide (LPS) (100 ng/ml) and methylcobalamin were added at 24 hours before collecting the proteins. To detect the M2 markers Arg1 and CD206, IL-4 (20 ng/ml) and methylcobalamin were added at 72 hours before collecting the proteins.
# The mechanism of the macrophage induction (Example 5) by methylcobalamin was analyzed. Specifically, the analysis was carried out as follows. At 30 minutes after IL-4 and methylcobalamin (100 nM and 1 mM) were added, activation of Akt, 4EBP1, and S6K in the Akt-mTOR pathway (one of the major signaling pathways that induce M2 gene expression) was evaluated by Western blot. In the pathway, Akt phosphorylation occurs in response to an upstream signal, and 4EBP1 phosphorylation and S6K phosphorylation further occur through mTORC1 in the downstream. The S6K phosphorylation provides a negative feedback to the upstream of the signaling pathway. Western blot was performed as in Example 5-2, except that IL-4 (20 ng/ml), methylcobalamin, and RAD001 (200 nM) were added at 30 minutes before the proteins were collected, and the primary antibodies for detection were changed.
# [2] = system: Mouse macrophage cell line J774A.1; test: Immunohistological evaluation of iNOS-positive (M1) and Arg1-positive (M2) macrophages; type: cell-based; conditions: for percentage of M2 macrophages (percentage of Arg1-positive cells): 72 hours; for percentage of M1 macrophages (percentage of iNOS-positive cells): 24 hours
# Protocol: Mouse macrophage cell line J774A.1 (JCRB9108) was purchased from JCRB Cell Bank (Laboratory of Cell Cultures), Osaka, Japan. Cells were cultured in DMEM containing 10% FBS and 1% penicillin/streptomycin.
# The J774A.1 cells (Example 5-1) were seeded on a dish having a diameter of 6 cm. After 4 days, cells were fixed with 4% PFA for 20 minutes. Blocking was performed for 30 minutes, and the cells were allowed to react with primary antibodies at 4° C. overnight. The cells were further allowed to react with a secondary antibody at room temperature for 1 hour so that the nuclei were labeled with DAPI. To detect the M1 marker iNOS, LPS (100 ng/ml) and methylcobalamin were added at 24 hours before fixing the cells. To detect the M2 marker Arg1, IL-4 (20 ng/ml) and methylcobalamin were added at 72 hours before fixing the cells.
# The primary antibodies used were a rabbit anti-iNOS monoclonal antibody (Abeam) and a rabbit anti-Arg1 polyclonal antibody (Santa Cruz). The secondary antibody used was an Alexa 488-labeled goat anti-rabbit IgG antibody (Life Technologies) or an Alexa 568-labeled goat anti-rabbit IgG antibody (Life Technologies).
# [3] = system: cerebral cortical neurons; test: LDH assay, necrosis inhibiting effect under oxygen-glucose deprivation (OGD) stress; type: cell-based, rat; conditions: 10 μM methylcobalamin 30 minutes before OGD stress (3 hours), measured after 24 hours
# Description: as §1, with “The cell mixture was centrifuged at 800 rpm, the residue was re-suspended in DMEM containing 10% FBS and 1% penicillin/streptomycin, and the suspension was seeded on a dish coated with poly-L lysine (PLL). At 4 hours after the cell seeding, the medium was replaced with Neurobasal medium (containing 10% B27 supplement and 1% penicillin/streptomycin).” left out
# To the cerebral cortical neurons (Example 1-1) cultured on a PLL-coated 6-well chamber slide, 10 μM methylcobalamin was added at 30 minutes before exposure to oxygen-glucose deprivation (OGD) stress. […] After 24 hours, the supernatant was collected, and LDH activity was measured using Cytotoxicity Detection Kit^PLUS (SIGMA). LDH activities of the control group and the methylcobalamin addition group were calculated as proportions (%) with respect to the LDH activity of the high control.
# [4] = IL-4 20 ng/ml + MeCbl 100 nM, listed as methylcobalamin
# [5] = IL-4 20 ng/ml + MeCbl 1 mM + RAD001 (200 nM)
# [6] = IL-4 20 ng/ml + MeCbl 1 mM, listed as methylcobalamin
smiles,measurement,setting,value
"C/C1=C2/[N-][C@H]([C@H](CC(N)=O)[C@@]2(C)CCC(=O)NC[C@@H](C)OP(=O)([O-])O[C@H]2[C@@H](O)[C@@H](n3cnc4cc(C)c(C)cc43)O[C@@H]2CO)[C@]2(C)N=C(/C(C)=C3N=C(/C=C4N=C1[C@@H](CCC(N)=O)C\4(C)C)[C@@H](CCC(N)=O)[C@]\3(C)CC(N)=O)[C@@H](CCC(N)=O)[C@]2(C)CC(N)=O.[CH3-].[Co+3] [MeCbl, methylcobalamin]",proportion of apoptotic cells,[1]; 20 mM glutamic acid + methylcobalamin,5.6%
same,proportion of apoptotic cells,"[1]; 20 mM glutamic acid + methylcobalamin, listed as methylcobalamin",significantly decreased to the level of the control
same,proportion of apoptotic cells,"[1]; MeCbl alone (Glutamate −), methylcobalamin",5.9%
same,p-4EBP1/4EBP1,Akt-mTOR pathway; IL-4 20 ng/ml + MeCbl 100 nM,4.94
same,p-Akt/Akt,Akt-mTOR pathway; IL-4 20 ng/ml + MeCbl 100 nM,3.58
same,p-S6K/S6K,Akt-mTOR pathway; IL-4 20 ng/ml + MeCbl 100 nM,2.65
same,p-4EBP1/4EBP1,Akt-mTOR pathway; [4],enhanced
same,p-S6K/S6K,Akt-mTOR pathway; [4],enhanced
same,p-4EBP1/4EBP1,Akt-mTOR pathway; [5],2.78
same,p-Akt/Akt,Akt-mTOR pathway; [5],3.78
same,p-S6K/S6K,Akt-mTOR pathway; [5],0.33
same,p-4EBP1/4EBP1,Akt-mTOR pathway; IL-4 20 ng/ml + MeCbl 1 mM,6.08
same,p-Akt/Akt,Akt-mTOR pathway; IL-4 20 ng/ml + MeCbl 1 mM,2.59
same,p-S6K/S6K,Akt-mTOR pathway; IL-4 20 ng/ml + MeCbl 1 mM,3.12
same,p-4EBP1/4EBP1,Akt-mTOR pathway; [6],activated
same,p-Akt/Akt,Akt-mTOR pathway; [6],decreased
same,p-S6K/S6K,Akt-mTOR pathway; [6],activated
same,percentage of M2 macrophages (percentage of Arg1-positive cells),[2]; IL-4 20 ng/ml + MeCbl 1 nM,10.90%
same,percentage of M2 macrophages (percentage of Arg1-positive cells),[2]; IL-4 20 ng/ml + MeCbl 10 nM,18.57%
same,percentage of M2 macrophages (percentage of Arg1-positive cells),[2]; IL-4 20 ng/ml + MeCbl 100 nM,18.95%
same,percentage of M2 macrophages (percentage of Arg1-positive cells),[2]; IL-4 20 ng/ml + MeCbl 1 μM,19.32%
same,percentage of M2 macrophages (percentage of Arg1-positive cells),[2]; IL-4 20 ng/ml + MeCbl 10 μM,15.24%
same,percentage of M2 macrophages (percentage of Arg1-positive cells),[2]; IL-4 20 ng/ml + MeCbl 100 μM,10.61%
same,percentage of M2 macrophages (percentage of Arg1-positive cells),[2]; IL-4 20 ng/ml + MeCbl 1 mM,9.49%
same,proportion of cells positive for the M2 marker Arg1 as compared to IL-4 alone,[2]; IL-4 + 10 nM to 1 μM methylcobalamin,significantly increased
same,percentage of M1 macrophages (percentage of iNOS-positive cells),[2]; LPS 100 ng/ml + MeCbl 1 nM,16.64%
same,percentage of M1 macrophages (percentage of iNOS-positive cells),[2]; LPS 100 ng/ml + MeCbl 10 nM,9.57%
same,percentage of M1 macrophages (percentage of iNOS-positive cells),[2]; LPS 100 ng/ml + MeCbl 100 nM,7.26%
same,percentage of M1 macrophages (percentage of iNOS-positive cells),[2]; LPS 100 ng/ml + MeCbl 1 μM,3.42%
same,percentage of M1 macrophages (percentage of iNOS-positive cells),[2]; LPS 100 ng/ml + MeCbl 10 μM,11.45%
same,percentage of M1 macrophages (percentage of iNOS-positive cells),[2]; LPS 100 ng/ml + MeCbl 100 μM,10.34%
same,percentage of M1 macrophages (percentage of iNOS-positive cells),[2]; LPS 100 ng/ml + MeCbl 1 mM,17.57%
same,proportion of cells positive for the M1 marker iNOS as compared with LPS alone,[2]; LPS + 10 nM to 100 μM methylcobalamin,significantly decreased
same,methylcobalamin concentration at peak of switch from M1 to M2,[2]; immunofluorescent staining,around 100 nM
same,LDH activity as proportion with respect to the high control,[3],1.3%
same,LDH activity as proportion with respect to the high control,[3]; listed as methylcobalamin,significantly decreased
